Laboratory results: the supplement of paper PMC10307832

Columns and labels:
Assay in all cases: relative viability (nuclei count vs DMSO), 5 days (fraction); higher = more cells survive
ABC-1 = test system: ABC-1
In short: (§1)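 After 5 days of treatment, lung cancer cells in 1536-well plates were fixed and stained in a single step (final 0.05% Triton X-100, 1% formaldehyde, 1 ug/ml Hoechst) and their nuclei counted on 4× images. Treatment had been applied by pin tool the day after seeding as one drug alone or as a fixed anchor-drug dose with five library-drug doses (not always all listed) in √10 steps. Relative viability is the nuclei count of treated wells divided by that of vehicle wells, and values are medians of duplicate plates.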

CAL-12T = test system: CAL-12T
In short: as §1

ChaGo-K-1 = test system: ChaGo-K-1
In short: as §1

HCC-366 = test system: HCC-366
In short: as §1

HCC-78 = test system: HCC-78
In short: as §1

LC-2-ad = test system: LC-2-ad
In short: as §1

LOU-NH91 = test system: LOU-NH91
In short: as §1

LU99A = test system: LU99A
In short: as §1

NCI-H1395 = test system: NCI-H1395
In short: as §1

NCI-H1651 = test system: NCI-H1651
In short: as §1

NCI-H1734 = test system: NCI-H1734
In short: as §1

NCI-H1755 = test system: NCI-H1755
In short: as §1

NCI-H1793 = test system: NCI-H1793
In short: as §1

NCI-H1944 = test system: NCI-H1944
In short: as §1

NCI-H2087 = test system: NCI-H2087
In short: as §1

NCI-H2170 = test system: NCI-H2170
In short: as §1

NCI-H2228 = test system: NCI-H2228
In short: as §1

NCI-H2405 = test system: NCI-H2405
In short: as §1

NCI-H3122 = test system: NCI-H3122
In short: as §1

NCI-H460 = test system: NCI-H460
In short: as §1

PC-3 [JPC-3] = test system: PC-3 [JPC-3]
In short: as §1

RERF-LC-KJ = test system: RERF-LC-KJ
In short: as §1

UMC-11 = test system: UMC-11
In short: as §1

Work on `NC(=O)Nc1cc(-c2cccc(F)c2)sc1C(=O)N[C@H]1CCCNC1` [AZD7762] + O=C(CCCCCCC(=O)Nc1ccccc1)NO [Vorinostat] (partner 1 µM) yielded a relative viability (ABC-1; first compound 0.01 µM) of 0.847, a relative viability (ABC-1; first compound 0.03162 µM) of 1.47 and a relative viability (ABC-1; first compound 0.1 µM) of 1.04. It also gave a relative viability (ABC-1; first compound 0.3162 µM) of 0.976, a relative viability (ABC-1; first compound 1 µM) of 0.314 and a relative viability (CAL-12T; first compound 0.01 µM) of 0.861. It also gave a relative viability (CAL-12T; first compound 0.03162 µM) of 0.693, a relative viability (CAL-12T; first compound 0.1 µM) of 0.9 and a relative viability (CAL-12T; first compound 0.3162 µM) of 0.276. The relative viability (CAL-12T; first compound 1 µM) was 0.167, the relative viability (ChaGo-K-1; first compound 0.01 µM) was 0.744 and the relative viability (ChaGo-K-1; first compound 0.03162 µM) was 0.743. For the same compound, the relative viability (ChaGo-K-1; first compound 0.1 µM) was 0.739, the relative viability (ChaGo-K-1; first compound 0.3162 µM) was 0.785 and the relative viability (ChaGo-K-1; first compound 1 µM) was 0.793. It also gave a relative viability (HCC-366; first compound 0.01 µM) of 0.455, a relative viability (HCC-366; first compound 0.03162 µM) of 0.301 and a relative viability (HCC-366; first compound 0.1 µM) of 0.39. For the same compound, the relative viability (HCC-366; first compound 0.3162 µM) was 0.188, the relative viability (HCC-366; first compound 1 µM) was 0.104 and the relative viability (HCC-78; first compound 0.01 µM) was 0.496. For the same compound, the relative viability (HCC-78; first compound 0.03162 µM) was 0.469, the relative viability (HCC-78; first compound 0.1 µM) was 0.498 and the relative viability (HCC-78; first compound 0.3162 µM) was 0.425. The relative viability (HCC-78; first compound 1 µM) was 0.349, the relative viability (LC-2-ad; first compound 0.01 µM) was 0.724 and the relative viability (LC-2-ad; first compound 0.03162 µM) was 0.755. For the same compound, the relative viability (LC-2-ad; first compound 0.1 µM) was 0.749, the relative viability (LC-2-ad; first compound 0.3162 µM) was 0.647 and the relative viability (LC-2-ad; first compound 1 µM) was 0.448. For the same compound, the relative viability (LOU-NH91; first compound 0.01 µM) was 0.87, the relative viability (LOU-NH91; first compound 0.03162 µM) was 0.971 and the relative viability (LOU-NH91; first compound 0.1 µM) was 0.917. The relative viability (LOU-NH91; first compound 0.3162 µM) was 0.741, the relative viability (LOU-NH91; first compound 1 µM) was 0.646 and the relative viability (LU99A; first compound 0.01 µM) was 0.469. For the same compound, the relative viability (LU99A; first compound 0.03162 µM) was 0.536, the relative viability (LU99A; first compound 0.1 µM) was 0.561 and the relative viability (LU99A; first compound 0.3162 µM) was 0.345. For the same compound, the relative viability (LU99A; first compound 1 µM) was 0.171, the relative viability (NCI-H1395; first compound 0.01 µM) was 0.721 and the relative viability (NCI-H1395; first compound 0.03162 µM) was 0.84. For the same compound, the relative viability (NCI-H1395; first compound 0.1 µM) was 0.684, the relative viability (NCI-H1395; first compound 0.3162 µM) was 0.32 and the relative viability (NCI-H1395; first compound 1 µM) was 0.336. For the same compound, the relative viability (NCI-H1651; first compound 0.01 µM) was 0.569, the relative viability (NCI-H1651; first compound 0.03162 µM) was 0.727 and the relative viability (NCI-H1651; first compound 0.1 µM) was 0.587. For the same compound, the relative viability (NCI-H1651; first compound 0.3162 µM) was 0.533, the relative viability (NCI-H1651; first compound 1 µM) was 0.272 and the relative viability (NCI-H1734; first compound 0.01 µM) was 0.772. The relative viability (NCI-H1734; first compound 0.03162 µM) was 0.723, the relative viability (NCI-H1734; first compound 0.1 µM) was 0.738 and the relative viability (NCI-H1734; first compound 0.3162 µM) was 0.415. The relative viability (NCI-H1734; first compound 1 µM) was 0.251, the relative viability (NCI-H1755; first compound 0.01 µM) was 0.804 and the relative viability (NCI-H1755; first compound 0.03162 µM) was 0.723. The relative viability (NCI-H1755; first compound 0.1 µM) was 0.72, the relative viability (NCI-H1755; first compound 0.3162 µM) was 0.663 and the relative viability (NCI-H1755; first compound 1 µM) was 0.423. It also gave a relative viability (NCI-H1793; first compound 0.01 µM) of 0.692, a relative viability (NCI-H1793; first compound 0.03162 µM) of 0.878 and a relative viability (NCI-H1793; first compound 0.1 µM) of 0.981. It also gave a relative viability (NCI-H1793; first compound 0.3162 µM) of 0.953, a relative viability (NCI-H1793; first compound 1 µM) of 0.284 and a relative viability (NCI-H1944; first compound 0.01 µM) of 0.544. The relative viability (NCI-H1944; first compound 0.03162 µM) was 0.654, the relative viability (NCI-H1944; first compound 0.1 µM) was 0.611 and the relative viability (NCI-H1944; first compound 0.3162 µM) was 0.568. The relative viability (NCI-H1944; first compound 1 µM) was 0.295, the relative viability (NCI-H2087; first compound 0.01 µM) was 0.891 and the relative viability (NCI-H2087; first compound 0.03162 µM) was 0.874. It also gave a relative viability (NCI-H2087; first compound 0.1 µM) of 0.841, a relative viability (NCI-H2087; first compound 0.3162 µM) of 0.976 and a relative viability (NCI-H2087; first compound 1 µM) of 0.791. The relative viability (NCI-H2170; first compound 0.01 µM) was 0.81, the relative viability (NCI-H2170; first compound 0.03162 µM) was 0.834 and the relative viability (NCI-H2170; first compound 0.1 µM) was 0.766. The relative viability (NCI-H2170; first compound 0.3162 µM) was 0.772, the relative viability (NCI-H2170; first compound 1 µM) was 0.824 and the relative viability (NCI-H2228; first compound 0.01 µM) was 1.06. For the same compound, the relative viability (NCI-H2228; first compound 0.03162 µM) was 0.443, the relative viability (NCI-H2228; first compound 0.1 µM) was 0.59 and the relative viability (NCI-H2228; first compound 0.3162 µM) was 0.383. For the same compound, the relative viability (NCI-H2228; first compound 1 µM) was 0.299, the relative viability (NCI-H2405; first compound 0.01 µM) was 1.08 and the relative viability (NCI-H2405; first compound 0.03162 µM) was 1.08. The relative viability (NCI-H2405; first compound 0.1 µM) was 0.976, the relative viability (NCI-H2405; first compound 0.3162 µM) was 0.756 and the relative viability (NCI-H2405; first compound 1 µM) was 0.521. It also gave a relative viability (NCI-H3122; first compound 0.01 µM) of 0.936, a relative viability (NCI-H3122; first compound 0.03162 µM) of 0.927 and a relative viability (NCI-H3122; first compound 0.1 µM) of 1.06. For the same compound, the relative viability (NCI-H3122; first compound 0.3162 µM) was 0.925, the relative viability (NCI-H3122; first compound 1 µM) was 0.973 and the relative viability (NCI-H460; first compound 0.01 µM) was 0.885. The relative viability (NCI-H460; first compound 0.03162 µM) was 0.63, the relative viability (NCI-H460; first compound 0.1 µM) was 0.684 and the relative viability (NCI-H460; first compound 0.3162 µM) was 0.216. It also gave a relative viability (NCI-H460; first compound 1 µM) of 0.0532, a relative viability (PC-3 [JPC-3]; first compound 0.01 µM) of 0.644 and a relative viability (PC-3 [JPC-3]; first compound 0.03162 µM) of 0.888. It also gave a relative viability (PC-3 [JPC-3]; first compound 0.1 µM) of 0.759, a relative viability (PC-3 [JPC-3]; first compound 0.3162 µM) of 0.607 and a relative viability (PC-3 [JPC-3]; first compound 1 µM) of 0.501. For the same compound, the relative viability (RERF-LC-KJ; first compound 0.01 µM) was 0.749, the relative viability (RERF-LC-KJ; first compound 0.03162 µM) was 0.695 and the relative viability (RERF-LC-KJ; first compound 0.1 µM) was 0.711. For the same compound, the relative viability (RERF-LC-KJ; first compound 0.3162 µM) was 0.722, the relative viability (RERF-LC-KJ; first compound 1 µM) was 0.601 and the relative viability (UMC-11; first compound 0.01 µM) was 0.373. For the same compound, the relative viability (UMC-11; first compound 0.03162 µM) was 0.297, the relative viability (UMC-11; first compound 0.1 µM) was 0.324 and the relative viability (UMC-11; first compound 0.3162 µM) was 0.271. The relative viability (UMC-11; first compound 1 µM) was 0.194.
